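These data come from cells grown in 96-well plates and exposed to compound for 48 hours at five concentrations. Abbreviation: GI50, concentration required for 50% inhibition of growth.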 Calls of active or inactive are those of the source. Cut-off read from the data, not from the text of the source: active = GI50 up to about 1.1 µM and inactive = higher.
Experiments:
Experiment in all cases: NCI-60 cell line screen, 48 h
TK-10 = tested on: TK-10
RXF 393 = tested on: RXF 393
HOP-92 = tested on: HOP-92
Malme-3M = tested on: Malme-3M
UACC-62 = tested on: UACC-62
HCC 2998 = tested on: HCC 2998
SW-620 = tested on: SW-620
HOP-62 = tested on: HOP-62
CCRF-CEM = tested on: CCRF-CEM
SNB-19 = tested on: SNB-19
SK-MEL-2 = tested on: SK-MEL-2
ACHN = tested on: ACHN
U-251 = tested on: U-251
NCI-H522 = tested on: NCI-H522
OVCAR-4 = tested on: OVCAR-4
IGROV-1 = tested on: IGROV-1
NCI-H460 = tested on: NCI-H460

Measured: GI50

COc1ccc2c(C(=O)O)cc3ccccc3c2c1OC
inactive: TK-10 19.1 µM | RXF 393 15.2 µM | HOP-92 21.9 µM | Malme-3M 21.9 µM | UACC-62 15.2 µM | HCC 2998 21.2 µM | SW-620 19.4 µM | HOP-62 69.3 µM | CCRF-CEM 24.8 µM | SNB-19 43.6 µM | SK-MEL-2 30.5 µM | ACHN 16.3 µM | U-251 40.9 µM | NCI-H522 13.8 µM

CCCN(CCC)c1c([N+](=O)[O-])cc(C(N)=O)cc1[N+](=O)[O-]
inactive: OVCAR-4 > 100 µM | TK-10 > 100 µM | Malme-3M 62.1 µM | HCC 2998 91 µM | IGROV-1 > 100 µM | CCRF-CEM 39.1 µM | SK-MEL-2 74.5 µM | ACHN > 100 µM | NCI-H460 68.2 µM | U-251 69 µM | NCI-H522 36.7 µM

O=C(CC12C3C4C1C1C2C3C41CC(=O)NO)NO (stereo not given)
inactive: TK-10 > 100 µM | HOP-92 39.3 µM | Malme-3M 31 µM | UACC-62 37.6 µM | HCC 2998 > 100 µM | SW-620 38.9 µM | HOP-62 40.8 µM | CCRF-CEM 26.7 µM | SNB-19 > 100 µM | SK-MEL-2 > 100 µM | ACHN > 100 µM | NCI-H460 23.4 µM | U-251 35.7 µM | NCI-H522 27.7 µM

CC(C)(C)C(=O)Nc1ccccc1Br
inactive: OVCAR-4 > 100 µM | TK-10 > 100 µM | RXF 393 > 100 µM | HOP-92 > 100 µM | Malme-3M > 100 µM | UACC-62 > 100 µM | HCC 2998 > 100 µM | SW-620 > 100 µM | IGROV-1 > 100 µM | HOP-62 > 100 µM | CCRF-CEM > 100 µM | SNB-19 > 100 µM | SK-MEL-2 > 100 µM | ACHN > 100 µM | NCI-H460 > 100 µM | U-251 > 100 µM

CC12CCC(=O)N1c1ccc([N+](=O)[O-])cc1N2 (stereo not given)
inactive: OVCAR-4 > 100 µM | RXF 393 > 100 µM | Malme-3M > 100 µM | UACC-62 > 100 µM | SW-620 > 100 µM | IGROV-1 > 100 µM | HOP-62 > 100 µM | CCRF-CEM > 100 µM | SNB-19 > 100 µM | SK-MEL-2 > 100 µM | ACHN > 100 µM | U-251 > 100 µM | NCI-H522 > 100 µM

CSc1ccc2c(cc1=O)C(NC(=O)c1ccc(OC(C)=O)cc1)CCc1cc(O)c(O)c(O)c1-2 (stereo not given)
inactive: OVCAR-4 9.02 µM | TK-10 91.2 µM | Malme-3M 48.9 µM | UACC-62 18.5 µM | HCC 2998 74.1 µM | SW-620 13.1 µM | HOP-62 26.9 µM | CCRF-CEM 3.43 µM | SNB-19 35.2 µM | SK-MEL-2 16.2 µM | ACHN 66.8 µM | NCI-H460 23.2 µM | U-251 20.4 µM | NCI-H522 12.8 µM

COC(=O)C(Cc1c[nH]c2ccccc12)NC(=O)C(Cc1c[nH]c2ccccc12)NC(=O)OCc1ccccc1 (stereo not given)
inactive: OVCAR-4 16.4 µM | TK-10 22.8 µM | RXF 393 19.5 µM | HOP-92 20 µM | Malme-3M 39.6 µM | UACC-62 19.3 µM | HCC 2998 17.8 µM | SW-620 17.5 µM | IGROV-1 19.3 µM | HOP-62 19.7 µM | CCRF-CEM 21.7 µM | SNB-19 17.5 µM | ACHN 21.6 µM | NCI-H460 18.1 µM | U-251 16.9 µM | NCI-H522 16.3 µM

C=CCN1CCC23c4c5ccc(O)c4OC2C(=NN=C2CCC4(O)C6Cc7ccc(O)c8c7C4(CCN6CC=C)C2O8)CCC3(O)C1C5 (stereo not given)
inactive: OVCAR-4 22 µM | TK-10 21.6 µM | HOP-92 17.6 µM | Malme-3M 19.1 µM | UACC-62 21 µM | HCC 2998 21.3 µM | SW-620 21.4 µM | IGROV-1 > 100 µM | HOP-62 21.4 µM | CCRF-CEM 34.8 µM | SNB-19 44.3 µM | SK-MEL-2 18 µM | ACHN 20.2 µM | NCI-H460 20.5 µM | U-251 18.9 µM | NCI-H522 31 µM

CCOC(=O)C12CCCC1(O)N(NC(=O)OC)C(C)=C2C(=O)OC (stereo not given)
inactive: OVCAR-4 > 100 µM | TK-10 > 100 µM | HOP-92 > 100 µM | Malme-3M > 100 µM | UACC-62 > 100 µM | HCC 2998 > 100 µM | SW-620 > 100 µM | IGROV-1 > 100 µM | HOP-62 > 100 µM | CCRF-CEM > 100 µM | SNB-19 > 100 µM | SK-MEL-2 14.1 µM | ACHN > 100 µM | NCI-H460 > 100 µM | U-251 > 100 µM | NCI-H522 > 100 µM

O=[N+]([O-])C(=C(c1ccccc1)c1ccccc1)[N+](=O)[O-]
inactive: OVCAR-4 14.5 µM | TK-10 18.6 µM | RXF 393 3.69 µM | UACC-62 3.79 µM | HCC 2998 11.4 µM | SW-620 11.4 µM | IGROV-1 5.96 µM | HOP-62 > 10 µM | CCRF-CEM 2.93 µM | SNB-19 15.7 µM | SK-MEL-2 2.43 µM | ACHN 12.8 µM | NCI-H460 5.57 µM | U-251 13.6 µM | NCI-H522 15.4 µM

N#CC(C#N)=c1c2nsnc2c(=C(C#N)C#N)c2nsnc12
inactive: OVCAR-4 1.96 µM | TK-10 16 µM | RXF 393 1.28 µM | HOP-92 1.45 µM | Malme-3M 1.65 µM | HCC 2998 1.77 µM | SW-620 1.47 µM | HOP-62 2.04 µM | SNB-19 2.16 µM | SK-MEL-2 2.02 µM | ACHN 1.81 µM | NCI-H460 2.08 µM | U-251 1.79 µM | NCI-H522 1.96 µM

Cc1cc2c(=O)c3ccc(Cl)cc3[nH]c2c(C(=O)O)c1C
inactive: OVCAR-4 > 100 µM | TK-10 > 100 µM | RXF 393 47.5 µM | Malme-3M > 100 µM | UACC-62 > 100 µM | HCC 2998 > 100 µM | SW-620 > 100 µM | IGROV-1 > 100 µM | HOP-62 > 100 µM | CCRF-CEM > 100 µM | SNB-19 > 100 µM | SK-MEL-2 > 100 µM | ACHN > 100 µM | NCI-H460 > 100 µM | U-251 > 100 µM | NCI-H522 73.8 µM

O=C(CCC(=O)C(C(=O)c1ccccc1)c1ccccc1)Nc1cccc(C(F)(F)F)c1 (stereo not given)
inactive: OVCAR-4 > 100 µM | TK-10 > 100 µM | HOP-92 > 100 µM | Malme-3M > 100 µM | UACC-62 > 100 µM | HCC 2998 > 100 µM | SW-620 > 100 µM | IGROV-1 > 100 µM | CCRF-CEM > 100 µM | SNB-19 > 100 µM | SK-MEL-2 > 100 µM | ACHN > 100 µM | NCI-H460 > 100 µM | U-251 > 100 µM | NCI-H522 > 100 µM

COc1ccc(-c2onc(-c3ccc([N+](=O)[O-])cc3)c2C2=NCCN2)cc1
inactive: OVCAR-4 60.1 µM | RXF 393 32.3 µM | Malme-3M > 100 µM | UACC-62 > 100 µM | HCC 2998 > 100 µM | SW-620 > 100 µM | IGROV-1 > 100 µM | HOP-62 > 100 µM | CCRF-CEM > 100 µM | SNB-19 50.5 µM | SK-MEL-2 > 100 µM | ACHN 38.1 µM | NCI-H460 45.9 µM | U-251 67.6 µM | NCI-H522 > 10 µM

Cc1nc2c(n1CCC(C)C)C(=O)c1ccccc1C2=O
inactive: OVCAR-4 36.6 µM | TK-10 41.2 µM | RXF 393 23.4 µM | Malme-3M 24.1 µM | UACC-62 12.2 µM | HCC 2998 40.9 µM | SW-620 37.9 µM | IGROV-1 22.3 µM | HOP-62 18 µM | CCRF-CEM 13.6 µM | SNB-19 39.7 µM | SK-MEL-2 17.5 µM | ACHN 29.9 µM | NCI-H460 6.08 µM | U-251 12.7 µM | NCI-H522 20.5 µM

Cc1ccccc1NC(=O)C(=O)c1c(O)c2ccc(O)cc2oc1=O
inactive: OVCAR-4 > 100 µM | TK-10 > 100 µM | RXF 393 > 100 µM | HOP-92 > 100 µM | Malme-3M > 100 µM | UACC-62 > 100 µM | SW-620 > 100 µM | IGROV-1 > 100 µM | HOP-62 > 100 µM | CCRF-CEM > 100 µM | SNB-19 > 100 µM | SK-MEL-2 > 100 µM | ACHN > 100 µM | NCI-H460 > 100 µM | U-251 > 100 µM | NCI-H522 > 100 µM

O=C(NCC#CCO)C(F)(F)F
inactive: OVCAR-4 > 100 µM | TK-10 > 100 µM | RXF 393 > 100 µM | Malme-3M > 100 µM | UACC-62 > 100 µM | HCC 2998 > 100 µM | SW-620 > 100 µM | IGROV-1 > 100 µM | HOP-62 > 100 µM | SNB-19 > 100 µM | SK-MEL-2 > 100 µM | ACHN > 100 µM | NCI-H460 > 100 µM | U-251 > 100 µM | NCI-H522 > 100 µM

O=c1[nH]c2c(c3ccccc13)CCc1ccccc1-2
inactive: OVCAR-4 > 100 µM | TK-10 > 100 µM | RXF 393 > 100 µM | Malme-3M > 100 µM | UACC-62 > 10 µM | HCC 2998 > 100 µM | SW-620 > 100 µM | IGROV-1 > 100 µM | SNB-19 > 100 µM | SK-MEL-2 > 100 µM | ACHN > 100 µM | U-251 > 100 µM | NCI-H522 > 100 µM

— ChEMBL document CHEMBL1201862, “PubChem BioAssay data set” (2004)
